Reference: patent US20160361311A1, “LIGANDS THAT TARGET HEPATITIS C VIRUS E2 PROTEIN” (AMERICAN UNIVERSITY OF CAIRO, priority 2014, published 2016)

Tests used:
[1] = MTS viability / hepatocyte toxicity assay; format: cell-based; conditions: human
Description: (§1) The analysis of the effect of 281816 ligand on Huh-7 infection by HCVpp bearing envelope proteins from different genotypes was performed in 24-well plates using the method described above. This ligand was also screened for toxicity to the hepatocytes using the MTS (3-(4,5-dimethylthiazol-2-yl)-5-(3-carboxymethoxyphenyl)-2-(4-sulfophenyl)-2Htetrazolium) assay.
(§2) The remaining ligands were next tested against pseudotyped retroviral particles harboring genotype-2a HCV envelope proteins (HCVpp 2a), cell culture produced HCV particles (HCVcc) or RD114pp. As a positive control, an anti-CD81 antibody was used in parallel.

hepatocytes = assay: MTS viability / hepatocyte toxicity assay; format: cell-based; conditions: over the concentrations tested in the infection assays, highest 10 μM
Description: as §1, §2

[2] = system: HCV genotypes 1a, 1b, 2a, 2b, 4a and 6a; assay: HCVpp infection assays over all genotypes tested (summary statements); format: cell-based
Description: (§3) Pseudotyped retroviral particles harboring HCV envelope proteins (HCVpp) from different genotypes were produced as described previously. A plasmid encoding the feline endogenous virus RD114 glycoprotein [35] was used for the production of RD114pp. Both HCVpp and RD114pp expressed Firefly luciferase.
(§4) To identify ligands that inhibit HCV infection, Huh-7 cells were seeded in 96-well plates and treated the day after with six different concentrations of each ligand diluted in DMSO in duplicate using a Zephyr automated liquid handling workstation (Caliper BioSciences, Hopkinton, Mass.). The final concentration of DMSO (1%) was adjusted to be the same for all ligand concentrations. Cells treated with DMSO were used as negative controls. Cells treated with different concentrations of anti-CD81 (JS-81 from BD Pharmingen, San Jose, Calif.) 1 hour before infection, were also used as positive controls. The third day, RD114pp, HCVpp or HCVcc were inoculated and incubated for 30 hours at 37° C. Firefly and Gaussia luciferase assays were performed as indicated by the manufacturer (Promega, San Luis Obispo, Calif.).
The analysis of the effect of 281816 ligand on Huh-7 infection by HCVpp bearing envelope proteins from different genotypes was performed in 24-well plates using the method described above. […]

HCVcc = HCVcc infection of Huh-7 cells (Gaussia luciferase); format: cell-based, HCV; conditions: Hepatitis C virus, Huh-7, 30 h, read-out: IC50 HCVcc
Description: The cell culture-produced HCV particles (HCVcc) used in this study were based on the JFH1 strain [36] and were prepared as described previously. They were engineered to express the A4 epitope, titer-enhancing mutations and Gaussia luciferase.
as §4, §2

RD114pp = RD114pp infection of Huh-7 cells (luciferase); format: cell-based, feline endogenous virus RD114; conditions: Feline endogenous virus RD114, Huh-7, 30 h, read-out: IC50 RD114pp
Description: as §3, §4
Pseudotyped retroviral particles harboring the envelope protein of an endogenous feline retrovirus (RD114pp) were first used to determine the specificity and the safety of molecules.

HCVpp 2a [3] = assay: HCVpp 2a infection of Huh-7 cells, 96-well (luciferase); format: cell-based, HCV; conditions: Hepatitis C virus, Huh-7, 30 h, read-out: IC50 HCVpp
Description: as §3, §4, §2

HCVpp 4a = assay: HCVpp genotype infection of Huh-7 cells, 24-well; format: cell-based, HCV; conditions: Hepatitis C virus
Description: as §3, §4, §1
(§5) To determine if 281816 would inhibit HCV genotypes other than 2a, a series of infection assays were performed with HCVpp bearing envelope proteins from a number of different HCV genotypes.

HCVpp 1b = assay: HCVpp genotype infection of Huh-7 cells, 24-well; format: cell-based, HCV; conditions: Hepatitis C virus
Description: as §3, §4, §1, §5

HCVpp 2b = assay: HCVpp genotype infection of Huh-7 cells, 24-well; format: cell-based, HCV; conditions: Hepatitis C virus
Description: as §3, §4, §1, §5

HCVpp 1a = assay: HCVpp genotype infection of Huh-7 cells, 24-well; format: cell-based, HCV; conditions: Hepatitis C virus
Description: as §3, §4, §1, §5

HCVpp 6a = assay: HCVpp genotype infection of Huh-7 cells, 24-well; format: cell-based, HCV; conditions: Hepatitis C virus
Description: as §3, §4, §1, §5

HCVpp 2a [4] = assay: HCVpp genotype infection of Huh-7 cells, 24-well; format: cell-based, HCV; conditions: Hepatitis C virus
Description: as §3, §4, §1, §5

[5] = target: T1, HCV E2 protein binding to native CD81 on Raji cells (Hepatitis C virus genotype 1b, UniProt Q9WMX2); assay: Flow cytometry: recombinant HCV E2 binding to native CD81 on Raji cells; format: cell-based, human; conditions: E2 pre-incubated with 1-400 μM ligand; flow cytometry MFI
T1 construct: encoding amino acids 384-656 of the Con1 envelope protein 2 ectodomain (eE2); Protein A (C); made in house; host or cells: E2: HEK293T cells (inferred); CD81: endogenous on Raji cells
Description: The human B cell line, Raji, which expresses high levels of CD81 on its surface was used to determine if ligands could inhibit the binding of HCV-E2 protein to native CD81. Cells were grown in RPMI medium (10% fetal calf serum, 1% penicillin/streptomycin, 1% L-glutamine, 1% non-essential amino acids, 1% sodium pyruvate, pH 7.4) at 37° C. in an atmosphere of 5% CO2. Purified HCV-E2 protein (4 μg) was pre-incubated with 1,5,15, 50, 100 or 400 μM of the ligand 281816 for 25 min RT. After pre-incubation the E2-ligand complex was added to the cells and incubated for 25 min. The complexes were washed from the cells and 0.5 μg of anti E2 antibody (clone H53) was added followed by secondary anti mouse-FITC (Southern Biotechnology). The cells were washed, fixed with 3% paraformaldehyde, and analyzed by flow cytometry (BD FACSCalibur, software: Cell Quest Pro) analysis. The mean fluorescence intensity (MFI) was calculated using Flowjo software (TreesStar, www.flowjo.com).
Ligand 281816 was selected based on the prediction by docking that it would bind to a site on the HCV E2 protein where CD81 binds. To confirm that the binding of 281816 to E2 inhibits the HCV E2-CD81 interaction, flow cytometry was used to monitor the binding of a recombinant form of the E2 protein to native CD81 overexpressed on Raji cells as a function of 281816 concentration.

T1 sequence (Q9WMX2 384-656): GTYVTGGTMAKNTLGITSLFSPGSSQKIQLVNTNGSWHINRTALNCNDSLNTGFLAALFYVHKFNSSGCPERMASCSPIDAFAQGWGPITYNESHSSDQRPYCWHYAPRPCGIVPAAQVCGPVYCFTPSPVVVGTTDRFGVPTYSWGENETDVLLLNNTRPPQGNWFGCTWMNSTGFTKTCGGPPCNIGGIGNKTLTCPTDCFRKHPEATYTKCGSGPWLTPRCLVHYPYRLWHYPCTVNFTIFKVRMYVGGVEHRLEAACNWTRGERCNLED

Compound: CSc1ccc2c(c1)C(N1CCN(C)CC1)Cc1ccccc1S2 (centres unmarked) [Ligand 281816]
- CC50 [1]: 14 µM
- hepatocyte toxicity (hepatocytes): not observed
- IC50 ([2]; Hepatitis C virus, read-out: IC50 range over HCV genotypes): 2.2 to 4.6 µM
- block of hepatocyte infection (in words) ([2]; genotypes 1a, 1b, 2a, 2b, 4a and 6a): block infection of hepatocytes by each of the HCV genotypes and subtypes tested
- IC50 (HCVcc): 3.95 µM
- IC50 (RD114pp): > 10 µM
- IC50 (HCVpp 2a [3]): 1.02 µM
- IC50 (HCVpp 4a): 3.44 µM
- IC50 (HCVpp 1b): 4.66 µM
- IC50 (HCVpp 2b): 2.93 µM
- IC50 (HCVpp 1a): 2.95 µM
- IC50 (HCVpp 6a): 3.3 µM
- IC50 (HCVpp 2a [4]): 2.22 µM
- inhibition of E2 protein binding to CD81 on Raji cells [5]: inhibited by 281816 in a dose-dependent manner up to 100 μM
